{"source": "patent US20090305244A1", "about": "“Selection, Propagation and Use of Mosaic Aneuploid Stem Cells” (The Scripps Research Institute, priority 2005, published 2009)", "key": {"[1]": {"system": "Mouse ESC", "assay": "Chromosome counts of ESCs treated with taxol during PA6 co-culture differentiation", "assay_type": "cell-based", "settings": "FIG. 3", "description": "(§1) A key attribute of HESCs is their ultimate ability to differentiate into normal, mature cells. There is ample evidence that the differentiation of ES cells can be manipulated to give rise to enriched populations of neuronal cells. Stromal PA6 cells, when used as feeders, promote neural differentiation by inducing mouse ES colonies to become Tuj-1-positive and with robust neuritogenesis (Kawasaki et al., 2000). To examine the differentiation potential of anueploid vs. euploid cells, mammalian ESCs were treated with (aneuploid) or without (euploid) taxol and were examined for their ability to differentiate into neurons when cocultured with PA6 cells. Following 1 week of differentiation, 55% of taxol treated cells had gained chromosomes (FIG. 3).\n(§2) Mouse ESC were co-cultured with PA6 cells (Kawasaki et al., 2002) for 1 week under differentiation conditions (DMEM/F12 Glutamax (Gibco, Carlsbad, Calif.), 10% “KNOCKOUT” serum replacement (Gibco), 0.1 mM non-essential aminoacids (Gibco) and 0.1 mM β-mercaptoethanol (Gibco). Cells were treated with taxol (Sigma) at a concentration of 2.5 nM.\nHESC Chromosome spreads were obtained by standard protocols (Barch et al., 1997; Rehen et al., 2001). […]\nFor each sample, 40 metaphase spreads were captured and analyzed by SKY and 70 metaphase spreads counterstained with DAPI were captured for aneuploidy quantification."}, "[2]": {"system": "Mouse ESC", "assay": "Neuronal differentiation of ESCs co-cultured with PA6 cells (tuj1 staining)", "assay_type": "cell-based", "settings": "taxol 2.5 nM versus without taxol; PA6 co-culture 1 week; FIG. 4", "description": "as §1, §2\nImmunofluorescence staining was performed as previously described (Gage et al., 1995), using α-β-tubulin-III (Tuj-1; 1/1000, Covance). Secondary antibodies were purchased from Jackson ImmunoResearch."}}, "note": "Entries after “also recorded” stand apart in the source; their conditions may differ.", "data": [{"smiles": "CC(=O)O[C@H]1C(=O)[C@@]2(C)[C@H]([C@H](OC(=O)c3ccccc3)[C@]3(O)C[C@H](OC(=O)[C@H](O)[C@@H](NC(=O)c4ccccc4)c4ccccc4)C(C)=C1C3(C)C)[C@]1(OC(C)=O)CO[C@@H]1C[C@@H]2O", "note": "[taxol]", "values": [{"measurement": "induction of aneuploidy (chromosome counts)", "setting": "[1]; ESCs on PA6 cells treated with taxol for 6 days", "value": "induces aneuploidy, specifically hyperploidy"}, {"measurement": "taxol treated cells that had gained chromosomes", "setting": "[1]; taxol 2.5 nM, following 1 week of differentiation on PA6 cells", "value": 55, "unit": "%"}, {"measurement": "number of neuronally differentiated colonies (tuj1 staining) / neuronal differentiation potential", "setting": "[2]", "value": "significantly reduces neuronal differentiation potential; also recorded: significant decrease"}]}]}
